Values after ≈ are worked out from the molar mass of the structure shown. Where a name gives a salt, the structure may show the parent alone. Read-outs that look alike come from different tables or passages of the source.
What was measured:
[1] = tested on: apo B100 secretion of HepG2 cells; assay: Functionality of HepG2 cells: secretion of apo B100 (ELISA); type: cell-based; details: human, HepG2 liver cells, HepG2, 40-48 hours, highest test concentration 10 μg/ml
Protocol: (§1) The vitality and functionality of human HepG2 liver cells were examined after treatment with exemplary compounds. In each case 2×10^4−1×10^5 cells were incubated in RPMI 1640 (Whittacker) with 10% heat-inactivated foetal calf serum (Gibco) at 37° C. for 40-48 hours. The incubation volume of 200 μl contained the test substances in concentrations of 10, 2 and 0.4 μg/ml.
(§2) The functionality of the HepG2 cells was examined by measuring the secretion of apo B100 and α2-macroglobulin after treatment. To this end, the protein content of the culture supernatants was determined by ELISA after incubation for 40-48 hours. Apo B100 was bound using rabbit ahLDL (1 mg/ml) and quantified using peroxidase-conjugated monoclonal antibodies (ahLDL_POD), with addition of the substrate TMB/H2O2. The optical density was measured at 450 nm.

[2] = tested on: α2-macroglobulin secretion of HepG2 cells; assay: Functionality of HepG2 cells: secretion of α2-macroglobulin (ELISA); type: cell-based; details: human, HepG2 liver cells, HepG2, 40-48 hours, highest test concentration 10 μg/ml
Protocol: as §1, §2
To determine α2-macroglobulin, the ELISA system from Biodesign (Art.No. H 45205M) was used. Quantification was likewise carried out using the substrate TMB/H2O2, and measuring the optical density at 450 nm.

[3] = tested on: S. aureus 133; assay: Determination of the minimum inhibitory concentration (MIC), liquid dilution test; type: cell-based; details: Staphylococcus aureus
Protocol: (§3) The MIC was determined using the liquid dilution test. Overnight cultures of the test germs (S. aureus 133) in Isosensitest bouillon were diluted 1:1000 with foetal calf serum (FCS) or Isosensitest bouillon and incubated with dilutions of the test substances (successive dilutions of 1:2).
The cultures were incubated at 37° C. for 18-24 hours. In each case the lowest concentration of substance at which no visible bacterial growth took place, was defined as MIC.

[4] = Vitality of HepG2 cells (Alamar Blue fluorescence); type: cell-based; details: human, HepG2 liver cells, HepG2, 40-48 hours, highest test concentration 10 μg/ml
Protocol: as §1
The vitality was examined after addition of 20 μl Alamar Blue (Biosource, Art. No. DAL 1100) by measuring the fluorescence (excitation: 544 nm, emission: 590 nm).

[5] = Neutral Red vitality test using J774.A1 cells; type: cell-based, murine; details: mouse; J774.A1 murine macrophage cells, 72 hours with substance; vitality reduced to 50% of untreated control
Protocol: (§4) Compatibility tests of the exemplary compounds were carried out using cultures of eukaryotic cells. Hepatocytes (HepG2) and murine macrophage cells (J774.A1) were used as indicator for organ-specific toxicity. The murine macrophage cell line used is a particularly sensitive indicator for toxic effects.
(§5) In each case 1.2×10^4 cells were incubated at 37° C. for 24 hours. Test substances were added at different concentrations, and the cells were incubated for another 72 hours. The cells were then treated with 50 μl of Neutral Red solution (Sigma, No. N 2889) for 2 hours, washed with PBS medium and denaturated using an ethanol/glacial acetic acid mixture.
(§6) The cultures were measured in an Elisa reader at 540 nm and 630 nm. The IC50 values were extrapolated and indicate at which concentration the vitality of the cells, measured by the uptake of Neutral Red, is reduced to 50%, compared to untreated control cells.

[6] = tested on: TAN 1057 A,B-resistant S. aureus 133; assay: MIC test with TAN 1057 A,B-resistant isolates from stepwise selection; type: cell-based; details: Staphylococcus aureus
Protocol: as §3
Bacteria of the strain S. aureus 133 were incubated with different concentrations of TAN 1057 A,B for 24 hours. […] This process was repeated for several days, selecting step by step bacteria having increased resistance to TAN 1057 A,B. The MIC of highly resistant S. aureus 133 bacteria was >100 μg/ml (initial MIC: <0.1 μg/ml). The bacteria from this selection series, having an MIC of <0.1, 0.8, 25, 100 and >100 μg/ml, were used for tests. It is thus possible to identify TAN 1057 A,B derivatives having antibacterial activity against TAN 1057 A,B-resistant cells.
The S. aureus 133 isolates with medium and high resistance to TAN 1057 A,B were tested in comparison to the derivatives of the invention.

[7] = Acute toxicity in mice (LD50); details: mouse, in vivo, ip, intraperitoneal administration, dose at which 50% of treated mice survive
Protocol: The acute toxicity of the substances was determined by determining the dose at which 50% of the treated mice survive (=LD50). Following intraperitoneal administration of the test substances, the LD50 for TAN 1057 A,B was 100 mg/kg. The LD50 for the compound of Example 4 was >400 mg/kg.

[8] = tested on: S. aureus 133; assay: Test of antibacterial activity in vivo (infected mice, survival); details: mice infected i.p. with 1×10^6 S. aureus 133 in 5% mucine; intravenous administration 30 minutes after infection
Protocol: Mice were infected with 1×10^6 bacteria of the strain S. aureus 133 in 5% mucine (i.p.) and treated by intravenous administration of the test substances 30 minutes after the infection. Without treatment, all infected animals died. The therapeutic doses for TAN 1057 A,B and the compound of Example 4 at which all infected animals survived (=ED100) was 1 mg/kg for both substances.

[9] = tested on: J774.A1 cells; assay: Neutral Red vitality test using J774.A1 cells; type: cell-based, murine; details: compatibility tests with eukaryotic cells: hepatocytes (HepG2) and murine macrophage cells (J774.A1)
Protocol: as §4, §5, §6

[10] = S. aureus 133, overnight culture diluted 1:1000 with foetal calf serum, 37° C., 18-24 hours, lowest concentration without visible growth, read-out: MIC in FCS (S.aureus; μg/ml)
[11] = read-out: MIC, isolate with medium resistance to TAN 1057 A,B

CCN(C(=O)C[C@@H](N)CCCNC(=N)N)C1CNC(NC(N)=O)=NC1=O (stereo partly drawn) (as salt: hydrochloride) [Example 15, (3′S,5R,S)-5-[N-Ethyl-N-(3′-amino-6′-guanidinohexanoyl)amino]-5,6-dihydro-2-ureido-4(1H)-pyrimidone Dihydrochloride] showed a melting point of 170 to 172 °C.

CN(C(=O)C[C@@H](N)CCCCNC(=N)N)C1CNC(NC(N)=O)=NC1=O (stereo partly drawn) [Example 1, (3′S,5R,S)-5-[N-Methyl-N-(3′-amino-7′-guanidinoheptanoyl)amino]-5,6-dihydro-2-ureido-4(1H)-pyrimidone Dihydrochloride] gave an IC50 [1] greater than 10 µg/mL, an IC50 [2] greater than 10 µg/mL and an MIC [3, 10] of 0.2 µg/mL. The IC50 [4] was greater than 10 µg/mL and the IC50 at 72 h [5] was 3 µg/mL.

CN(C(=O)CC(N)c1cccc(NC(=N)N)c1)C1CNC(NC(N)=O)=NC1=O (stereo not drawn) [Example 2, (3′RS,5RS)-5-{N-Methyl-N-[3′-amino-3′-(3-guanidylphenyl)propionyl]amino}-5,6-dihydro-2-ureido-4(1H)-pyrimidone Dihydrochloride] showed an IC50 [1] greater than 10 µg/mL, an IC50 [2] greater than 10 µg/mL and an MIC [3, 10] of 50 µg/mL. It also gave an IC50 [4] greater than 10 µg/mL and an IC50 at 72 h [5] of 6 µg/mL.

CN(C(=O)C[C@@]1(N)C[C@H]1CCNC(=N)N)C1CNC(NC(N)=O)=NC1=O (stereo partly drawn) [Example 3, 5-{N-Methyl-N-2′-[1-amino-2-(2-guanidinoethyl)cyclopropyl]acetamino}-5,6-dihydro-2-ureido-4(1H)-pyrimidone Dihydrochloride] gave an MIC [3, 10] of 100 µg/mL and an IC50 at 72 h [5] of 40 µg/mL.

Compound CN(C(=O)C[C@@H](N)CCCN)C1CNC(NC(N)=O)=NC1=O (stereo partly drawn) [Example 4, (3′S,5R,S)-5-[N-Methyl-N-(3′,6′-diaminohexanoyl)amino]-5,6-dihydro-2-ureido-4(1H)-pyrimidone Dihydrochloride] has an MIC [6, 11] of 0.2 µg/mL, an MIC [3, 10] of 0.4 µg/mL and an LD50 [7] greater than 400 mg/kg. For the same compound, the “ED100 (therapeutic dose at which all infected animals survived)” value [8] was 1 mg/kg and the IC50 at 72 h [5] was 25 µg/mL.

In the case of CN(C(=O)C[C@@H](N)CCCCN)C1CNC(NC(N)=O)=NC1=O (stereo partly drawn) [Example 5, (3′S,5R,S)-5-[N-Methyl-N-(3′,7′-diaminoheptanoyl)amino]-5,6-dihydro-2-ureido-4(1H)-pyrimidone Dihydrochloride], the MIC [3, 10] is reported as 0.1 µg/mL and the IC50 at 72 h [5] is reported as 6 µg/mL.

CNC(=N)NCCC[C@H](N)CC(=O)N(C)C1CNC(NC(N)=O)=NC1=O (stereo partly drawn) [Example 6, (3′S,5R,S)-5-{N-Methyl-N-[3′-amino-6′-(N′-methylguanidino)hexanoyl]amino}-5,6-dihydro-2-ureido-4(1H)-pyrinidone Dihydrochloride] gave an MIC [3, 10] of 0.8 µg/mL and an IC50 at 72 h [5] of 5.5 µg/mL.

For CCNCCC[C@H](N)CC(=O)N(C)C1CNC(NC(N)=O)=NC1=O (stereo partly drawn) [Example 7, (3′S,5R,S)-5-[N-Methyl-N-(3′-amino-6′-ethylaminohexanoyl)amino]-5,6-dihydro-2-ureido-4(1H)-pyrimidone Dihydrochloride], the MIC [3, 10] was 0.8 µg/mL and the IC50 at 72 h [5] was 50 µg/mL.

In the case of CN(C(=O)C[C@@H](N)CCN)C1CNC(NC(N)=O)=NC1=O (stereo partly drawn) [Example 8, (3′S,5R,S)-5-[N-Methyl-N-(3′,5′-diaminopentanoyl)amino]-5,6-dihydro-2-ureido-4(1H)-pyrimidone Dihydrochloride], the MIC [3, 10] is reported as 1.6 µg/mL and the IC50 at 72 h [5] is reported as 1.8 µg/mL.

With N=C(N)NCCC[C@H](N)CC(=O)NC1CNC(NC(N)=O)=NC1=O (stereo partly drawn) [Example 9, (3′R,5R,S)-5-[N-(3′-amino-6′-guanidinohexanoyl)amino]-5,6-dihydro-2-ureido-4(1H)-pyrimidone Dihydrochloride] the MIC [3, 10] was 1.6 µg/mL.

Work on CCN(C(=O)C[C@@H](N)CCCN)C1CNC(NC(N)=O)=NC1=O (stereo partly drawn) [Example 10, (3′S,5R,S)-5-[N-Ethyl-N-(3′,6′-diaminohexanoyl)amino]-5,6-dihydro-2-ureido-4(1H)-pyrimidone Dihydrochloride] yielded an MIC [3, 10] of 3.2 µg/mL.

Compound CN(C(=O)CC[C@@H](N)CCCN)C1CNC(NC(N)=O)=NC1=O (stereo partly drawn) [Example 11, (4′S,5R,S)-5-[N-Methyl-N-(4′,7′-diaminoheptanoyl)amino]-5,6-dihydro-2-ureido-4(1H)-pyrimidone Dihydrochloride] has an MIC [3, 10] of 3.2 µg/mL.

CN(C(=O)C[C@H](N)CCCN)C1CNC(NC(N)=O)=NC1=O (stereo partly drawn) [Example 12, (3′R,5R,S)-5-[N-Methyl-N-(3′,6′-diaminohexanoyl)amino]-5,6-dihydro-2-ureido-4(1H)-pyrimidone Dihydrochloride] gave an MIC [3, 10] of 6.3 µg/mL.

In the case of CN(C(=O)C[C@@H](N)CCC(N)=O)C1CNC(NC(N)=O)=NC1=O.Cl (stereo partly drawn) [Example 13, (3′R,5R,S)-5-[N-Methyl-N-(3′-amino-5′-carbamoyl-pentanoyl)amino]-5,6-dihydro-2-ureido-4(1H)-pyrimidone Dihydrochloride], the MIC [3, 10] is reported as 12.5 µg/mL.

Compound NCCC[C@H](N)CC(=O)NC1CNC(NC(N)=O)=NC1=O (stereo partly drawn) [Example 14, (3′R,5R,S)-5-[N-(3′,6′-Diaminohexanoyl)amino]-5,6-dihydro-2-ureido-4(1H)-pyrimidone Dihydrochloride] has an MIC [3, 10] of 12.5 µg/mL.

CCN(C(=O)C[C@@H](N)CCCNC(=N)N)C1CNC(NC(N)=O)=NC1=O (stereo partly drawn) [Example 15, (3′S,5R,S)-5-[N-Ethyl-N-(3′-amino-6′-guanidinohexanoyl)amino]-5,6-dihydro-2-ureido-4(1H)-pyrimidone Dihydrochloride] gave an MIC [3, 10] of 100 µg/mL.

Compound COC(=O)NCCC[C@H](N)CC(=O)N(C)C1CNC(NC(N)=O)=NC1=O.Cl (stereo partly drawn) [Example 16, (3′S,5R,S)-5-[N-Methyl-N-(3′-amino-6′-methoxycarbonylaminohexanoyl)-amino]-5,6-dihydro-2-ureido-4(1H)-pyrimidone Hydrochloride] has an MIC [3, 10] of 100 µg/mL.

Work on CN(C(=O)CC(N)CCCCCN)C1CNC(NC(N)=O)=NC1=O [Example 17, (3′R,S,5R,S)-5-[N-Methyl-N-(3′,8′-diaminooctanoyl)amino]-5,6-dihydro-2-ureido-4(1H)-pyrimidone Dihydrochloride] yielded an MIC [3, 10] of 6.3 µg/mL.

CN(C(=O)CC(N)CCC#N)C1CNC(NC(N)=O)=NC1=O.Cl [Example 18, (3′R,S,5R,S)-5-[N-Methyl-N-(3′-amino-5′-cyanopentanoyl)amino]-5,6-dihydro-2-ureido-4(1H)-pyrimidone Hydrochloride] showed an MIC [3, 10] of 12.5 µg/mL.

In the case of CN(C(=O)C[C@@H](N)CNC(=N)N)C1CNC(NC(N)=O)=NC1=O (stereo partly drawn) [TAN 1057 A,B, reference compound], the IC50 [2] is reported as 7 µg/mL (≈ 21.4 µM), the MIC ([6]; read-out: MIC of highly resistant S. aureus 133 bacteria) is reported as greater than 100 µg/mL and the MIC [6, 11] is reported as 0.8 µg/mL (≈ 2.44 µM). It also gave an MIC [3, 10] of 0.1 µg/mL (≈ 0.305 µM), an MIC ([3]; S. aureus 133 before selection with TAN 1057 A,B, read-out: initial MIC) of less than 0.1 µg/mL and an LD50 [7] of 100 mg/kg. For the same compound, the “ED100 (therapeutic dose at which all infected animals survived)” value [8] was 1 mg/kg, the “toxicity (in words)” value [9] was “pronounced toxicity in the liver and cells of the immune system” and the IC50 at 72 h [5] was 0.25 µg/mL (≈ 0.764 µM).

Source: patent US6617332B1, “Tan-1057 derivatives” (Bayer Aktiengesellschaft, priority 1998, dated 2003)
